Results from patent US20250345318A1, “COMPOUND AND USE THEREOF IN PREVENTING OR TREATING RADIATION DAMAGE” (SIMCERE PHARMACEUTICAL CO., LTD., priority 2022, published 2025).

Experiments:
[1] = system: SPCA-1 cells transfected with JWA-knockdown plasmids; test: Colony formation of SPCA-1 cells transfected with JWA-knockdown plasmids (Example 22); format: cell-based, human; conditions: JAC4-treated JWA-knockdown SPCA-1 vs JAC4-treated si-Control
Experimental: 1. SPCA-1 and BEAS-2B cells (or SPCA-1 and BEAS-2B cells transfected with JWA-knockdown plasmids) in the exponential growth phase were plated in 6-well plates at a specific amount. The number of plated cells is as follows
2. After the cells adhered to the container wall, the cells were treated (or not treated) with […] JAC4 and treated with X-ray of 0, 2, 4, or 6 Gy. The medium was replaced with a fresh medium containing JAC4 at the corresponding concentration once every 2 days (or the cells were treated with X-ray of 0, 2, 4, or 6 Gy after adhesion, and the medium was replaced with a fresh medium once every 2 days).
3. After the cells were cultured for 10-14 days, colonies were visually observed. The culture medium was discarded, and the cells were fixed with methanol for 10-20 min, stained with crystal violet for 10 min, slowly washed with flowing clear water thrice, photographed, and counted for colonies containing>50 cells.
4. The colony forming efficiency (CFE)=(number of colonies formed/number of seeded cells) 100% was calculated, and the cell survival fraction (SF)=(colony forming efficiency of treatment group/colony forming efficiency of 0 Gy group)×100% was calculated from the colony forming efficiency. […]

[2] = system: JWA; test: JWA expression in small intestine by Western blot (Example 4); format: in vivo, mice; conditions: small intestine tissue; JAC4 100 mg/kg oral, 7 days before and 4 days after TBI 6 Gy
Experimental: C57BL/6 male mice (24.8±1.6 g in body weight) aged 10 weeks were divided into 2 groups. After acclimating to the environment, JAC4 (100 mg/kg) or an equal volume of vehicle (polyethylene glycol:ethanol:physiological saline=47.5:7.5:50, v/v/v) was orally administered to the mice once daily for 7 consecutive days. After that, the mice were subjected to total body X-ray irradiation (6 Gy) and JAC4 or vehicle treatment was continued for 4 days, after which small intestine tissues were collected. The expression levels of JWA in the small intestine were detected by Western blot, with β-actin as the reference. Adobe photoshop CC was used to measure the grayscale value of JWA/β-actin in panel A for statistical analysis (** p<0.01).
The Western blot procedures are as follows:
1. Protein sample preparation: Proper volumes of protein sample solutions were mixed with physiological saline to give […] solutions at a volume of 16 μL, and 4 μL of 5×SDS sample buffer was added. The mixture was uniformly mixed, centrifuged at 1000×g for 10 s, and boiled at 100° C. for 5 min. The samples were cooled at room temperature and then preserved in a −20° C. freezer.
(1) Lower separating gel: The glass plates and gel cassette were assembled while ensuring that the bottom of the glass plates was sealed to prevent leakage of the gel. […]

[3] = system: NF-κB; test: NF-κB nuclear translocation by Western blot, BEAS-2B (Example 22); format: cell-based, human; conditions: JAC4 in combination with X-ray
Text: The production of ROS may lead to the activation of NF-κB, promote the translocation of NF-κB to the cell nucleus, and mediate various inflammatory responses. The nuclear and cytoplasmic proteins in BEAS-2B cells in all groups were separated.

[4] = system: lung tissue; test: Inflammation level in lung tissue of xenograft mice (RT-PCR, HE) (Example 21); format: in vivo
Experimental: After the modeling in Example 20 was completed, the inflammation level and DNA damage in the lung tissue were detected by the following specific procedures: 3 mice were randomly selected from each group to provide the lung tissue. About 20-30 mg of lung tissue was collected from each mouse in a centrifuge tube. The total RNA was isolated and extracted using the TRIzol reagent (Invitrogen) for RT-PCR (Reverse Transcription-Polymerase Chain Reaction) detection. The RNA was reversely transcribed into cDNA using a reverse transcription kit from Vazyme. Reaction system: 42° C., 2 min; 37° C., 15 min; 85° C., 5 s. The samples were preserved in a refrigerator at […] or −80° C. for later use. 30-35 PCR amplification cycles were performed. The data were analyzed by the ΔΔCt method using glyceraldehyde-3-phosphate dehydrogenase (GAPDH) as an internal standard and the AceQ qPCR SYBR Green Master Mix fluorescent quantitative PCR reagent from Vazyme on the 7900HT high throughput flash real-time fluorescent quantitative PCR system from Thermo Fisher Scientific for PCR assay. The results are shown in FIG. 29, with the following specific conditions: […]

[5] = JAC4+X-ray group relative to X-ray group

## c1ccc(CSc2nnc(C3COc4ccccc4O3)o2)nc1 (stereo not drawn) [JAC4]
[1]
  cell survival rate (radiosensitization curve): significantly increased
  number of colonies formed: significantly higher
[2]
  mean grayscale value of JWA expression (JWA/β-actin): 0.72±0.13
[3]
  X-ray-induced increase of NF-κB nuclear expression: inhibited
[4]; [5]
  mRNA level of anti-inflammatory factor IL-10 in lung tissue: 2.91 folds
  mRNA level of proinflammatory factor IL-1P in lung tissue: 0.43 folds
  mRNA level of proinflammatory factor TGF-β1 in lung tissue: 0.71 folds
  mRNA level of proinflammatory factor TNF-α in lung tissue: 0.63 folds
[4]; JAC4 treatment in combination with X-ray therapy
  HE staining of lung tissues: reduced inflammatory cell infiltration
